US12703728B2, “Interleukin 29 mutant protein” (priority 2020, dated 2026)
Substitutions are numbered along the chain they refer to. Like-named read-outs stand apart in the source and are kept apart here.

Legend:
[1] = tested on: respiratory syncytial virus; assay: In vitro efficacy on RSV-infected human bronchial epithelial cells (HBEC); assay type: cell-based; conditions: for Average inhibition rate (%): HBEC, RSV
Description: RSV with a titer of 100, TCID50 (half of the infective dose of tissue culture) was added to each of the activity test wells, culturing the cells in 37° C. and 5% CO2 incubator for 3 days, then RSV RNA was extracted from the cells by using the RNA Extraction Kit (Catlog: 74181, Qiagen), and quantified by RT-qPCR.

novel coronavirus = assay: organism not typed; assay type: cell-based, African green monkey
[2] = Toxic effects on Vero cells by CCK-8 assay; conditions: African green monkey, Vero cells
Vero cells = assay: Toxic effects on Vero cells by CCK-8 assay; conditions: 50 μmol/L and below, 48 h, CCK-8
HEK293-ISRE-Luc cells = assay type: cell-based; conditions: for EC50: HEK293-ISRE-Luc reporter gene method; for EC50/biological activity as compared with IL29 control (in words): reporter gene method
Excerpt: The reporter gene method refers to ligating the promoter of interferon-stimulated response element (ISRE) to alkaline phosphatase cDNA, and transfecting them into HEK293 cells, and evaluating IL29 activity by measuring alkaline phosphatase in supernatant of HEK293 cells after IL29 stimulation (LaFleur D W, Nardelli B, Tsareva T Et al. Interferon-kappa, a novel type I interferon expressed in human keratinocytes. [J]. J. Biol. Chem., 2001, 276:39765-71).
HEK293-ISRE-Luc cells (purchased from National institutes for Food and Drug Control) were allowed to grow adherently in complete culture medium. The cells were passaged at a ratio of 1:4, 2-3 times per week, growing in complete culture medium. The cultured cells were taken to discard the culture medium, and the cells were washed once with PBS and then digested and collected; and the cell suspension containing 3.5×10^5 to 4.5×10^5 cells per 1 ml was prepared with assay culture medium (BIBCO).

[3] = Stability of IL29 mutants at 50° C.; assay type: physicochemical; conditions: 50° C./75% relative humidity; for Reduction on Day 14 as compared with Point 0 (%): reversed-phase HPLC main peak
Description: (§1) The mobile phase A (acetonitrile:water:trifluoroacetic acid, in the volume ratio of 20:80:0.1) and the mobile phase B (acetonitrile:water:isopropanol:trifluoroacetic acid, in the volume ratio of 70:20:10:0.1) were prepared; and a chromatographic column (XBridge BEH C18 Column, 130A, 5 μm, 4.6 mm*100 mm) was used to analyze each test sample of proteins. The analytical conditions were as follows: flow rate 1.0 ml/min, acquisition time: 65 min, acquisition wavelength 214 nm, column temperature 45° C., and elution gradient as shown in Table 1 below.
Two injections of stock solution of a test sample were loaded in parallel, and the loading volume was set as15 μg-20 μg according to the sample concentration; finally, the purity of the main peak of the test sample was calculated by integrating according to the area normalization method.
The details are shown in Table 5, while the purity values at day 0 and 14 in Table 5 were used to make contrast chromatogram, as shown in FIGS. 3-10.

[4] = Stability of IL29 mutants at 50° C.; assay type: physicochemical; conditions: 50° C./75% relative humidity, reporter gene method
[5] = assay type: physicochemical; conditions: 25° C./60% relative humidity/5000 lux
Description: as §1
The mobile phase A (25 mmol/L phosphate buffer, pH 7.0) and mobile phase B (25 mmol/L phosphate buffer, 0.5 mol/L sodium chloride, pH 6.7) were prepared, and a chromatographic column (Thermo ProPac WCX-10 4.0*250 mm) was used to analyze each test sample of proteins. The analytical conditions were as follows: flow rate 0.8 ml/min, acquisition time: 55 min, acquisition wavelength 214 nm, column temperature 25° C., and elution gradient as shown in Table 2 below.
The stability of IL29 mutants was detected under the condition 25° C.±2° C./60% relative humidity ±5% relative humidity/5000±500 lux, samples were taken according to Table 6, and the same method in Example 2 was used to detect the stability of IL29 mutants.

[6] = Nebulization stability test
Description: A jet nebulizer of PARI LCD type and TurboBOY N nebulizer pump from Germany were used for nebulization tests. 2 ml of sample was nebulized, and aerosol was collected in the manner below according to FIG. 11; as for the collected sample, the purity of each test sample of IL29 mutants was detected according to the same method as in Example 2.2.1 by reversed-phase high performance liquid phase, thereby verifying the nebulization stability of each mutant.

[7] = Positive control group, 0.03 μM

Molecule: O=c1n(Cc2nc3ccccc3n2CCCCO)c2cnccc2n1C1CC1 [BMS-433771]
- EC50 ([1]; HBEC cell model, RSV RNA by RT-qPCR): 213 nM
- Average inhibition rate (%) ([1]; 10 nM): 31.65%
- Average inhibition rate (%) ([1]; 50 nM): 29.30%
- Average inhibition rate (%) ([1]; 250 nM): 85.31%
- Average inhibition rate (%) ([1]; 1250 nM): 97.91%

Molecule: CCC(CC)COC(=O)[C@H](C)N[P@](=O)(OC[C@H]1O[C@@](C#N)(c2ccc3c(N)ncnn23)[C@H](O)[C@@H]1O)Oc1ccccc1 [Remdesivir]
- Ct Value 1 (novel coronavirus; [7]): 17.05
- Ct Value 2 (novel coronavirus; [7]): 16.86
- Ct Value 3 (novel coronavirus; [7]): 17.71
- Ct Value Mean (novel coronavirus; [7]): 17.21
- Ct Value 1 (novel coronavirus; Positive control group, 0.1 μM): 17.63
- Ct Value 2 (novel coronavirus; Positive control group, 0.1 μM): 17.75
- Ct Value 3 (novel coronavirus; Positive control group, 0.1 μM): 17.57
- Ct Value Mean (novel coronavirus; Positive control group, 0.1 μM): 17.65
- Ct Value 1 (novel coronavirus; Positive control group, 0.3 μM): 20.83
- Ct Value 2 (novel coronavirus; Positive control group, 0.3 μM): 20.76
- Ct Value 3 (novel coronavirus; Positive control group, 0.3 μM): 19.75
- Ct Value Mean (novel coronavirus; Positive control group, 0.3 μM): 20.45
- Ct Value 1 (novel coronavirus; Positive control group, 1 μM): 27.63
- Ct Value 2 (novel coronavirus; Positive control group, 1 μM): 26.97
- Ct Value 3 (novel coronavirus; Positive control group, 1 μM): 26.91
- Ct Value Mean (novel coronavirus; Positive control group, 1 μM): 27.17
- Ct Value 1 (novel coronavirus; Positive control group, 3 μM): 30.57
- Ct Value 2 (novel coronavirus; Positive control group, 3 μM): 33.96
- Ct Value 3 (novel coronavirus; Positive control group, 3 μM): 33.11
- Ct Value Mean (novel coronavirus; Positive control group, 3 μM): 32.55
- Ct Value 1 (novel coronavirus; Positive control group, 10 μM): 34.85
- Ct Value 2 (novel coronavirus; Positive control group, 10 μM): 33.56
- Ct Value 3 (novel coronavirus; Positive control group, 10 μM): 34.75
- Ct Value Mean (novel coronavirus; Positive control group, 10 μM): 34.39
- inhibition at 0.03 µM (novel coronavirus; Vero, Positive control group, 0.03 μM, read-out: Average inhibition rate (%)): 17.5%
- inhibition at 0.1 µM (novel coronavirus; Vero, Positive control group, 0.1 μM, read-out: Average inhibition rate (%)): 39.3%
- inhibition at 0.3 µM (novel coronavirus; Vero, Positive control group, 0.3 μM, read-out: Average inhibition rate (%)): 91.3%
- inhibition at 1 µM (novel coronavirus; Vero, Positive control group, 1 μM, read-out: Average inhibition rate (%)): 99.9%
- inhibition at 3 µM (novel coronavirus; Vero, Positive control group, 3 μM, read-out: Average inhibition rate (%)): 100%
- inhibition at 10 µM (novel coronavirus; Vero, Positive control group, 10 μM, read-out: Average inhibition rate (%)): 100%
- IC50 (novel coronavirus; Vero, positive control group): 120 nM
- inhibition against the virus (novel coronavirus; positive control group, concentrations of 0.3 µM and above): ≥ 90%
- CC50 at 48 h [2]: > 50000 nM
- toxic effect on Vero cells (Vero cells): no obvious toxic effect

B1: IL29DE (protein)
chain: MKPTTTGKGCHIGRFKSLSPQELASFKKARDALEESLKLKNWSCSSPVFPGNWDLRLLQVRERPVALEAELALTLKVLEAAAGPALEDVLDQPLHTLHHILSQLQACIQPQPTAGPRPRGRLHHWLHRLQEAPKKESAGCLEASVTFNLFRLLTRDLKYVAEGNLCLRTSTHPEST
- Relative biological activity (%) (HEK293-ISRE-Luc cells): 282%
- EC50 (HEK293-ISRE-Luc cells): 1.697 ng/mL
- EC50/biological activity as compared with IL29 control (in words) (HEK293-ISRE-Luc cells): increased by nearly three times
- Main peak (%), reversed-phase HPLC purity ([3]; Day 7): 89.35%
- Main peak (%), reversed-phase HPLC purity ([3]; Day 14): 77.39%
- Main peak (%), reversed-phase HPLC purity ([3]; Point 0): 92.68%
- Reduction on Day 14 as compared with Point 0 (%) [3]: 15.29%
- biological activity in 14 days at 50° C. [4]: basically unchanged

B2: IL29 control: IL29 wild-type protein, amino acid sequence SEQ ID NO: 1 with an additional M amino acid at the N-terminal (protein)
chain: KPTTTGKGCHIGRFKSLSPQELASFKKARDALEESLKLKNWSCSSPVFPGNWDLRLLQVRERPVALEAELALTLKVLEAAAGPALEDVLDQPLHTLHHILSQLQACIQPQPTAGPRPRGRLHHWLHRLQEAPKKESAGCLEASVTFNLFRLLTRDLKYVADGNLCLRTSTHPEST
modifications: additional N-terminal Met
- EC50 (HEK293-ISRE-Luc cells): 4.783 ng/mL
- Main peak (%), reversed-phase HPLC purity ([3]; Day 7): 56.70%
- Main peak (%), reversed-phase HPLC purity ([3]; Day 14): 34.46%
- Main peak (%), reversed-phase HPLC purity ([3]; Point 0): 85.82%
- Reduction on Day 14 as compared with Point 0 (%) [3]: 51.36%

B3: IL29CS (protein)
chain: B1 chain with E162D, C166S
- EC50 (HEK293-ISRE-Luc cells): 4.639 ng/mL
- EC50/biological activity as compared with IL29 control (in words) (HEK293-ISRE-Luc cells): essentially no change
- Main peak (%), reversed-phase HPLC purity ([3]; Day 7): 64.66%
- Main peak (%), reversed-phase HPLC purity ([3]; Day 14): 46.20%
- Main peak (%), reversed-phase HPLC purity ([3]; Point 0): 97.03%
- Reduction on Day 14 as compared with Point 0 (%) [3]: 50.83%
- Ion exchange purity (%) ([5]; day 0): 97.00%
- Reversed-phase HPLC purity (%) ([5]; day 0): 95.361%
- Ion exchange purity (%) ([5]; day 5): 89.28%
- Reversed-phase HPLC purity (%) ([5]; day 5): 90.756%
- Ion exchange purity (%) ([5]; day 10): 77.14%
- Reversed-phase HPLC purity (%) ([5]; day 10): 84.30%
- Reverse-phase purity After nebulization [6]: 85.26%
- Reverse-phase purity Before nebulization ([6]; jet nebulizer, 2 ml sample): 96.65%
- Difference between purity before and after nebulization ([6]; reverse-phase purity): 10.39%
